Assay results from BigSolDB 2.1.

On1nnc2ccccc21
Settings | solubility (mole fraction)
in 1,4-dioxane, 288.15 K | 0.0145
in 1,4-dioxane, 290.65 K | 0.0158
in 1,4-dioxane, 293.15 K | 0.0171
in 1,4-dioxane, 295.65 K | 0.0187
in 1,4-dioxane, 298.15 K | 0.0202
in 1,4-dioxane, 300.65 K | 0.0225
in 1,4-dioxane, 303.15 K | 0.0247
in 1,4-dioxane, 305.65 K | 0.0272
in 1,4-dioxane, 308.15 K | 0.0298
in 1,4-dioxane, 310.65 K | 0.0331
in 1,4-dioxane, 313.15 K | 0.0364
in 2-butanone, 278.15 K | 0.0157
in 2-butanone, 280.65 K | 0.0169
in 2-butanone, 283.15 K | 0.0181
in 2-butanone, 285.65 K | 0.0195
in 2-butanone, 288.15 K | 0.021
in 2-butanone, 290.65 K | 0.0225
in 2-butanone, 293.15 K | 0.0241
in 2-butanone, 295.65 K | 0.0259
in 2-butanone, 298.15 K | 0.0278
in 2-butanone, 300.65 K | 0.0299
in 2-butanone, 303.15 K | 0.0323
in 2-butanone, 305.65 K | 0.0347
in 2-butanone, 308.15 K | 0.0372
in 2-butanone, 310.65 K | 0.0402
in 2-butanone, 313.15 K | 0.0433
in DMF, 278.15 K | 0.0412
in DMF, 280.65 K | 0.0464
in DMF, 283.15 K | 0.0522
in DMF, 285.65 K | 0.0587
in DMF, 288.15 K | 0.0646
in DMF, 290.65 K | 0.072
in DMF, 293.15 K | 0.0794
in DMF, 295.65 K | 0.0884
in DMF, 298.15 K | 0.098
in DMF, 300.65 K | 0.109
in DMF, 303.15 K | 0.121
in DMF, 305.65 K | 0.134
in DMF, 308.15 K | 0.148
in DMF, 310.65 K | 0.164
in DMF, 313.15 K | 0.18
in DMSO, 278.15 K | 0.0337
in DMSO, 280.65 K | 0.0377
in DMSO, 283.15 K | 0.0421
in DMSO, 285.65 K | 0.0475
in DMSO, 288.15 K | 0.0529
in DMSO, 290.65 K | 0.0592
in DMSO, 293.15 K | 0.0664
in DMSO, 295.65 K | 0.0738
in DMSO, 298.15 K | 0.082
in DMSO, 300.65 K | 0.0921
in DMSO, 303.15 K | 0.103
in DMSO, 305.65 K | 0.114
in DMSO, 308.15 K | 0.128
in DMSO, 310.65 K | 0.142
in DMSO, 313.15 K | 0.157
in acetone, 278.15 K | 0.0139
in acetone, 280.65 K | 0.0149
in acetone, 283.15 K | 0.016
in acetone, 285.65 K | 0.0171
in acetone, 288.15 K | 0.0184
in acetone, 290.65 K | 0.0198
in acetone, 293.15 K | 0.0214
in acetone, 295.65 K | 0.0229
in acetone, 298.15 K | 0.0246
in acetone, 300.65 K | 0.0266
in acetone, 303.15 K | 0.0285
in acetone, 305.65 K | 0.0306
in acetone, 308.15 K | 0.033
in acetone, 310.65 K | 0.0355
in acetone, 313.15 K | 0.0383
in acetonitrile, 278.15 K | 0.00229
in acetonitrile, 280.65 K | 0.00249
in acetonitrile, 283.15 K | 0.00271
in acetonitrile, 285.65 K | 0.00295
in acetonitrile, 288.15 K | 0.00322
in acetonitrile, 290.65 K | 0.00348
in acetonitrile, 293.15 K | 0.0038
in acetonitrile, 295.65 K | 0.00414
in acetonitrile, 298.15 K | 0.00449
in acetonitrile, 300.65 K | 0.00488
in acetonitrile, 303.15 K | 0.00531
in acetonitrile, 305.65 K | 0.0058
in acetonitrile, 308.15 K | 0.00631
in acetonitrile, 310.65 K | 0.00685
in acetonitrile, 313.15 K | 0.00749
in ethanol, 278.15 K | 0.0318
in ethanol, 280.65 K | 0.0331
in ethanol, 283.15 K | 0.0355
in ethanol, 285.65 K | 0.0377
in ethanol, 288.15 K | 0.0406
in ethanol, 290.65 K | 0.0433
in ethanol, 293.15 K | 0.0462
in ethanol, 295.65 K | 0.0493
in ethanol, 298.15 K | 0.0528
in ethanol, 300.65 K | 0.0566
in ethanol, 303.15 K | 0.0605
in ethanol, 305.65 K | 0.0651
in ethanol, 308.15 K | 0.0697
in ethanol, 310.65 K | 0.0746
in ethanol, 313.15 K | 0.0802
in ethyl acetate, 278.15 K | 0.00505
in ethyl acetate, 280.65 K | 0.00555
in ethyl acetate, 283.15 K | 0.00606
in ethyl acetate, 285.65 K | 0.00676
in ethyl acetate, 288.15 K | 0.00745
in ethyl acetate, 290.65 K | 0.00821
in ethyl acetate, 293.15 K | 0.00908
in ethyl acetate, 295.65 K | 0.0101
in ethyl acetate, 298.15 K | 0.0115
in ethyl acetate, 300.65 K | 0.013
in ethyl acetate, 303.15 K | 0.0149
in ethyl acetate, 305.65 K | 0.0169
in ethyl acetate, 308.15 K | 0.0193
in ethyl acetate, 310.65 K | 0.0219
in ethyl acetate, 313.15 K | 0.0247
in isooctanol, 278.15 K | 0.0108
in isooctanol, 280.65 K | 0.0112
in isooctanol, 283.15 K | 0.0115
in isooctanol, 285.65 K | 0.0119
in isooctanol, 288.15 K | 0.0123
in isooctanol, 290.65 K | 0.0127
in isooctanol, 293.15 K | 0.0132
in isooctanol, 295.65 K | 0.0137
in isooctanol, 298.15 K | 0.0143
in isooctanol, 300.65 K | 0.0149
in isooctanol, 303.15 K | 0.0154
in isooctanol, 305.65 K | 0.0161
in isooctanol, 308.15 K | 0.0168
in isooctanol, 310.65 K | 0.0175
in isooctanol, 313.15 K | 0.0182
in isopentanol, 278.15 K | 0.0109
in isopentanol, 280.65 K | 0.0114
in isopentanol, 283.15 K | 0.0118
in isopentanol, 285.65 K | 0.0123
in isopentanol, 288.15 K | 0.0127
in isopentanol, 290.65 K | 0.0132
in isopentanol, 293.15 K | 0.0137
in isopentanol, 295.65 K | 0.0143
in isopentanol, 298.15 K | 0.0148
in isopentanol, 300.65 K | 0.0155
in isopentanol, 303.15 K | 0.0161
in isopentanol, 305.65 K | 0.0167
in isopentanol, 308.15 K | 0.0174
in isopentanol, 310.65 K | 0.0181
in isopentanol, 313.15 K | 0.0188
in isopropanol, 278.15 K | 0.0248
in isopropanol, 280.65 K | 0.0261
in isopropanol, 283.15 K | 0.0281
in isopropanol, 285.65 K | 0.0301
in isopropanol, 288.15 K | 0.032
in isopropanol, 290.65 K | 0.0341
in isopropanol, 293.15 K | 0.0367
in isopropanol, 295.65 K | 0.0392
in isopropanol, 298.15 K | 0.0421
in isopropanol, 300.65 K | 0.0451
in isopropanol, 303.15 K | 0.0481
in isopropanol, 305.65 K | 0.0515
in isopropanol, 308.15 K | 0.0553
in isopropanol, 310.65 K | 0.0592
in isopropanol, 313.15 K | 0.0637
in methanol, 278.15 K | 0.0223
in methanol, 280.65 K | 0.0239
in methanol, 283.15 K | 0.0254
in methanol, 285.65 K | 0.0274
in methanol, 288.15 K | 0.0294
in methanol, 290.65 K | 0.0314
in methanol, 293.15 K | 0.0336
in methanol, 295.65 K | 0.0358
in methanol, 298.15 K | 0.0386
in methanol, 300.65 K | 0.0415
in methanol, 303.15 K | 0.0445
in methanol, 305.65 K | 0.048
in methanol, 308.15 K | 0.0522
in methanol, 310.65 K | 0.0562
in methanol, 313.15 K | 0.0609
in n-heptanol, 278.15 K | 0.0119
in n-heptanol, 280.65 K | 0.0123
in n-heptanol, 283.15 K | 0.0129
in n-heptanol, 285.65 K | 0.0134
in n-heptanol, 288.15 K | 0.014
in n-heptanol, 290.65 K | 0.0146
in n-heptanol, 293.15 K | 0.0152
in n-heptanol, 295.65 K | 0.0158
in n-heptanol, 298.15 K | 0.0165
in n-heptanol, 300.65 K | 0.0173
in n-heptanol, 303.15 K | 0.0182
in n-heptanol, 305.65 K | 0.019
in n-heptanol, 308.15 K | 0.02
in n-heptanol, 310.65 K | 0.021
in n-heptanol, 313.15 K | 0.022
in n-hexanol, 278.15 K | 0.0114
in n-hexanol, 280.65 K | 0.0118
in n-hexanol, 283.15 K | 0.0123
in n-hexanol, 285.65 K | 0.0129
in n-hexanol, 288.15 K | 0.0134
in n-hexanol, 290.65 K | 0.0139
in n-hexanol, 293.15 K | 0.0145
in n-hexanol, 295.65 K | 0.0152
in n-hexanol, 298.15 K | 0.0159
in n-hexanol, 300.65 K | 0.0166
in n-hexanol, 303.15 K | 0.0174
in n-hexanol, 305.65 K | 0.0182
in n-hexanol, 308.15 K | 0.019
in n-hexanol, 310.65 K | 0.0198
in n-hexanol, 313.15 K | 0.0206
in n-propanol, 278.15 K | 0.0297
in n-propanol, 280.65 K | 0.0319
in n-propanol, 283.15 K | 0.034
in n-propanol, 285.65 K | 0.0362
in n-propanol, 288.15 K | 0.0387
in n-propanol, 290.65 K | 0.0412
in n-propanol, 293.15 K | 0.044
in n-propanol, 295.65 K | 0.0472
in n-propanol, 298.15 K | 0.0502
in n-propanol, 300.65 K | 0.0535
in n-propanol, 303.15 K | 0.0573
in n-propanol, 305.65 K | 0.0612
in n-propanol, 308.15 K | 0.0655
in n-propanol, 310.65 K | 0.0698
in n-propanol, 313.15 K | 0.0749
in toluene, 278.15 K | 1.1e-05
in toluene, 280.65 K | 1.2e-05
in toluene, 283.15 K | 1.5e-05
in toluene, 285.65 K | 1.61e-05
in toluene, 288.15 K | 1.99e-05
in toluene, 290.65 K | 2.17e-05
in toluene, 293.15 K | 2.49e-05
in toluene, 295.65 K | 2.85e-05
in toluene, 298.15 K | 3.26e-05
in toluene, 300.65 K | 3.61e-05
in toluene, 303.15 K | 4.28e-05
in toluene, 305.65 K | 4.87e-05
in toluene, 308.15 K | 5.56e-05
in toluene, 310.65 K | 6.2e-05
in toluene, 313.15 K | 6.92e-05
